Results as given in patent US8217035B2, “Pyrimidine derivatives used as PI-3-kinase inhibitors” (Novartis AG, priority 2006, dated 2012).
Read-outs that look alike come from different tables or passages of the source.

How the values were obtained:
[1] = target: PI3 kinase alpha (Homo sapiens, UniProt P42336); experiment: PI3K ATP depletion assay (Biological Method 1, Assay 3; KinaseGlo luminescence); format: biochemical; details: ATP depletion assay, read-out: PI3 Kinase Alpha, IC50
Procedure: The PI3 kinase alpha IC50 values shown in Table 1 were determined according to the ATP depletion assay as disclosed herein in Biological Method 1.
Assay 3: ATP Depletion Assay
Compounds to be tested are dissolved in DMSO and directly distributed into a black 384-well plate at 1.25 μL per well. To start the reaction, 25 μL of 10 nM PI3 kinase and 5 μg/mL 1-alpha-phosphatidylinositol (PI) are added into each well followed by 25 μL of 2 μM ATP. The reaction is performed until approx 50% of the ATP is depleted, and then stopped by the addition of 25 μL of KinaseGlo solution purchased from Promega. The stopped reaction is incubated for 5 minutes and the remaining ATP is then detected via luminescence.

[2] = tested on: A2780 ovarian cancer cells; experiment: Cellular proliferation in A2780 cells, Cell Titer Glo (Biological Method 4); format: cell-based; details: Homo sapiens
Procedure: In addition, many of the compounds of Table 1 were tested to determine their inhibitory activity in a cellular proliferation assay according to Biological Method 4.
The ability of the compounds of the invention to inhibit cellular proliferation were determined by using Cell Titer Glo, a commercially available assay from Promega Corporation. A2780 ovarian cancer cells were seeded in TC treated 96-well plates at a density of 1,000 per well in DMEM, 10% FBS, 1% Sodium Pyruvate, and 1% Penicillin Streptomycin for a minimum of 2 hrs prior to addition of compound. For each concentration of test compound, 2 μl (500×) aliquots of compound or 100% DMSO diluted in 500 μl of culture medium for 2× concentration then diluted 1× on the Cells. Cells were incubated for 72 hrs at 37° C., 5% CO2. After the 72 hour incubation, Cell Titer Glo reagent is added to determine number of viable cells remaining after exposure to the compound, and the EC50 value was calculated. The assay was performed according to the manufacturer's instruction (Promega Corporation, Madison, Wis. USA). Each experimental condition was performed in duplicate.

[3] = ovarian cancer cell line A2780, Biological Method 4

PI3 kinase alpha, sequence (P42336 whole entry): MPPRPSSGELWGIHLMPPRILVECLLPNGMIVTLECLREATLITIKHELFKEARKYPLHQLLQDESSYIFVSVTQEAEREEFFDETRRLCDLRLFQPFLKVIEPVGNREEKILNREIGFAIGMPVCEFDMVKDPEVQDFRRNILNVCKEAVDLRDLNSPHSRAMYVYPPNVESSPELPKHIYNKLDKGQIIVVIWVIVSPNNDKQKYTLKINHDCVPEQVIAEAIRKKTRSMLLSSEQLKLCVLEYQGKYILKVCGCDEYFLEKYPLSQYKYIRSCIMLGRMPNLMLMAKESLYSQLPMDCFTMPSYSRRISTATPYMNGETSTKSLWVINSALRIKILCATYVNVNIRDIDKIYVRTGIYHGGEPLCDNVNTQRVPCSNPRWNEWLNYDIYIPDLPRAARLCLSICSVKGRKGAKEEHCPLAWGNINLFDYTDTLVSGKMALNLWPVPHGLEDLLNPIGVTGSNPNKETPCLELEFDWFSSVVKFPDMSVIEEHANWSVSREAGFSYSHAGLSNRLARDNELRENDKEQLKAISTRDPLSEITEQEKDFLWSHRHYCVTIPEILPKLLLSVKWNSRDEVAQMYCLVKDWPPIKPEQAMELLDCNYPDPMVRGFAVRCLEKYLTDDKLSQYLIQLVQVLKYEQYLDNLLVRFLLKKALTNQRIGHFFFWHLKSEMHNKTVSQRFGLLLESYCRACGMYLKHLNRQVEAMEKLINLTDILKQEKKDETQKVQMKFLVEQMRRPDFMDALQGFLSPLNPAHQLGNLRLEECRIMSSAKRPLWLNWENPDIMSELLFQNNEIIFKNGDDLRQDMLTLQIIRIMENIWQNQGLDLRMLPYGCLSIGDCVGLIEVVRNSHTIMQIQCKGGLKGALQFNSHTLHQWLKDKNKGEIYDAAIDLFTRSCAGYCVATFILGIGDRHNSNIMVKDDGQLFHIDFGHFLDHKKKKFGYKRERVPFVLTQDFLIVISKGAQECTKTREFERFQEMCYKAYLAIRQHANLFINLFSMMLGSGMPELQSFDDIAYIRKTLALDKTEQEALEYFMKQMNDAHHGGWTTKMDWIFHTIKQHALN
PI3 kinase alpha, sequence (P27986 whole entry partner): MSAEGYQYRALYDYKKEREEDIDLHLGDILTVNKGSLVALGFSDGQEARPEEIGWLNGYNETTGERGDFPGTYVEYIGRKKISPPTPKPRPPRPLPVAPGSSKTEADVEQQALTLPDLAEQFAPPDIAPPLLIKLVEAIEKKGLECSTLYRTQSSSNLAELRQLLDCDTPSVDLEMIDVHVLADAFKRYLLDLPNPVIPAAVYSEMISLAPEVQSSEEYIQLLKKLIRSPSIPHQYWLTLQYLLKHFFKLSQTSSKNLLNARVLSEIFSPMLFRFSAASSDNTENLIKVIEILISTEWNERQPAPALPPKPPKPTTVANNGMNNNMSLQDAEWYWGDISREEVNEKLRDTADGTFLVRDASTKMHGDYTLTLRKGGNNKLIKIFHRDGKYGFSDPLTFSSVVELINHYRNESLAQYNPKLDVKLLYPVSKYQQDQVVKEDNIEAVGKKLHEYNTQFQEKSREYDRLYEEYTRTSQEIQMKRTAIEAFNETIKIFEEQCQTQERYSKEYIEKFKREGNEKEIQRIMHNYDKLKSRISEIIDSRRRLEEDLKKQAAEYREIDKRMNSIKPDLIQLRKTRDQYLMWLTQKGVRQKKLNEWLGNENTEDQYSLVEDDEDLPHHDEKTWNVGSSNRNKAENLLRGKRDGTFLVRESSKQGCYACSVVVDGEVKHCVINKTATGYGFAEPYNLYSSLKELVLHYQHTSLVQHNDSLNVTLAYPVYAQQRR

Compound	IC50 [1]	EC50 ([2]; ovarian cancer cell line A2780)	IC50 ([1]; Biological Method 1)	EC50 [2, 3]
COC(=O)N1CCC[C@H](Oc2cc(-c3cnc(N)cc3C(F)(F)F)nc(N3CCOCC3)n2)C1 [Compound 454]	< 1000 nM	< 10000 nM		
Nc1cc(C(F)(F)F)c(-c2cc(Nc3cccc(S(=O)(=O)N4CCOCC4)c3)nc(N3CCOCC3)n2)cn1 [Compound 316]			< 1000 nM	< 10000 nM
Nc1cc(C(F)(F)F)c(-c2cc(Nc3ccc(-c4nn[nH]n4)cc3)nc(N3CCOCC3)n2)cn1 [Compound 281]			< 1000 nM	< 25000 nM
CC(C)Oc1ccnc(Nc2cc(-c3cnc(N)cc3C(F)(F)F)nc(N3CCOCC3)n2)c1 [Compound 432]	< 1000 nM	< 10000 nM		
COc1cc2cc(Nc3cc(-c4ccc(N)nc4)nc(N4CCOCC4)n3)cnc2cc1OC [Compound 311]			< 1000 nM	< 1000 nM
C[C@@H]1CN(c2cc(-c3cnc(N)cc3C(F)(F)F)nc(N3CCOCC3)n2)C[C@H](C)O1 [Compound 327]			< 1000 nM	< 10000 nM
COc1ccc2cc(Nc3cc(-c4ccc(N)nc4)nc(N4CCOCC4)n3)cnc2c1 [Compound 494]	< 1000 nM	< 25000 nM		
Nc1ccc(-c2cc(Nc3ccc(F)cc3)nc(N3CCOCC3)n2)cn1 [Compound 305]			< 1000 nM	< 10000 nM
CC(C)OC(=O)N1CCC[C@@H](Oc2cc(-c3cnc(N)nc3N)nc(N3CCOCC3)n2)C1 [Compound 527]	< 1000 nM	< 10000 nM		
Nc1cc(C(F)(F)F)c(-c2cc(N3CCCOCC3)nc(N3CCOCC3)n2)cn1 [Compound 221]			< 1000 nM	< 10000 nM
N#Cc1cccc(Nc2cc(-c3ccc(N)nc3)nc(N3CCOCC3)n2)c1 [Compound 437]	< 1000 nM	< 10000 nM		
N#Cc1cc(-c2cnc(N)nc2C(F)(F)F)nc(N2CCOCC2)n1 [Compound 465]	< 1000 nM	< 10000 nM		
N#Cc1ccccc1Nc1cc(-c2ccc(N)nc2)nc(N2CCOCC2)n1 [Compound 441]	< 1000 nM	< 10000 nM		
Nc1cc(C(F)(F)F)c(-c2cc(N3CCOC(C(=O)NC4CCOCC4)C3)nc(N3CCOCC3)n2)cn1 (stereo not drawn) [Compound 329]			< 1000 nM	< 25000 nM
Nc1cc(C(F)(F)F)c(-c2cc(Cl)nc(N3CCOCC3)n2)cn1 [Compound 467]	< 1000 nM	< 25000 nM		
Nc1cc(C(F)(F)F)c(-c2cc(O[C@H]3CCN(C(=O)c4ccccc4)C3)nc(N3CCOCC3)n2)cn1 [Compound 532]	< 1000 nM	< 10000 nM		
CC(C)(C)OC(=O)N1CCC[C@H](Oc2cc(-c3cnc(N)cc3C(F)(F)F)nc(N3CCOCC3)n2)C1 [Compound 20]	< 1000 nM	< 1000 nM		
Nc1ccc(-c2cc(Nc3cnc4ccc(O)cc4c3)nc(N3CCOCC3)n2)cn1 [Compound 367]			< 1000 nM	< 10000 nM
NC(=O)C1CN(c2cc(-c3cnc(N)cc3C(F)(F)F)nc(N3CCOCC3)n2)CCO1 (stereo not drawn) [Compound 320]			< 1000 nM	< 10000 nM
Nc1ccc(-c2cc(Nc3ccc(N4CCNCC4)nc3)nc(N3CCOCC3)n2)cn1 [Compound 299]			< 1000 nM	< 10000 nM
CC(=O)c1ccccc1-c1cc(-c2ccc(N)nc2)nc(N2CCOCC2)n1 [Compound 255]			< 1000 nM	< 25000 nM
Nc1ncc(-c2cc(O[C@@H]3CCOC3)nc(N3CCOCC3)n2)c(C(F)(F)F)n1 [Compound 531]	< 1000 nM	< 10000 nM		
CS(=O)(=O)N1CC[C@@H](Oc2cc(-c3cnc(N)cc3C(F)(F)F)nc(N3CCOCC3)n2)C1 [Compound 540]	< 1000 nM	< 10000 nM		
CC(=O)N1CCC(Oc2ccc(Nc3cc(-c4cnc(N)cc4C(F)(F)F)nc(N4CCOCC4)n3)cn2)CC1 [Compound 262]			< 1000 nM	< 10000 nM
CN1CCC(Oc2ccc(Nc3cc(-c4ccc(N)nc4)nc(N4CCOCC4)n3)cn2)CC1 [Compound 276]			< 1000 nM	< 10000 nM
Nc1ccc(-c2cc(Nc3ccc(NCCN4CCCC4)nc3)nc(N3CCOCC3)n2)cn1 [Compound 497]	< 1000 nM	< 10000 nM		
N#Cc1ccc(Nc2cc(-c3cnc(N)cc3C(F)(F)F)nc(N3CCOCC3)n2)cn1 [Compound 284]			< 1000 nM	< 10000 nM
Nc1cc(C(F)(F)F)c(-c2cc(N3CCOC(c4ccc(C(F)(F)F)cc4)C3)nc(N3CCOCC3)n2)cn1 (stereo not drawn) [Compound 334]			< 1000 nM	< 10000 nM

Other lines, results leading:

IC50 [1]	EC50 ([2]; ovarian cancer cell line A2780)	IC50 ([1]; Biological Method 1)	EC50 [2, 3]	Compound
< 1000 nM	< 10000 nM			Nc1ncc(-c2cc(NC3CCCCC3)nc(N3CCOCC3)n2)cn1 [Compound 405]
< 1000 nM	< 25000 nM			N#Cc1cc(-c2ccc(N)nc2)nc(N2CCOCC2)n1 [Compound 415]
< 1000 nM	< 25000 nM			COC(=O)c1cnc(N2CCOCC2)nc1-c1cnc(N)nc1 [Compound 431]
< 1000 nM	< 10000 nM			Nc1ncc(-c2cc(N3CCCc4ccccc43)nc(N3CCOCC3)n2)cn1 [Compound 411]
		< 1000 nM	< 25000 nM	Cc1c(-c2cnc(N)nc2)nc(N2CCOCC2)nc1-c1cncc(OCCN(C)C)c1 [Compound 270]
< 1000 nM	< 10000 nM			Cc1c(-c2cnc(N)nc2)nc(N2CCOCC2)nc1-c1cccc(S(C)(=O)=O)c1 [Compound 548]
< 1000 nM	< 25000 nM			Cc1nc(N)ncc1-c1ccnc(N2CCOCC2)n1 [Compound 478]
		< 1000 nM	< 10000 nM	CN1CCC(C(=O)Nc2cc(-c3cnc(N)nc3)nc(N3CCOCC3)n2)CC1 [Compound 289]
< 1000 nM	< 10000 nM			Nc1ncc(-c2cc(Nc3ccc4c(c3)NC(=O)CO4)nc(N3CCOCC3)n2)cn1 [Compound 413]
< 1000 nM	< 10000 nM			Cc1nc(N)ncc1-c1cc(Nc2ccc3c(c2)OCCO3)nc(N2CCOCC2)n1 [Compound 477]
		< 10000 nM	< 25000 nM	Nc1ccc(-c2nc(N3CCOCC3)ncc2N)cn1 [Compound 259]
< 1000 nM	< 10000 nM			Cc1c(-c2ccc(S(C)(=O)=O)cc2)nc(N2CCOCC2)nc1-c1cnc(N)nc1 [Compound 549]
< 1000 nM	< 1000 nM			Nc1ncc(-c2cc(-c3cccnc3)nc(N3CCOCC3)n2)cn1 [Compound 518]
		< 1000 nM	< 10000 nM	NC(=O)c1cccc(-c2cc(-c3ccc(N)nc3)nc(N3CCOCC3)n2)c1 [Compound 251]
		< 1000 nM	< 10000 nM	COc1cccc(Nc2cc(-c3cnc(N)nc3)nc(N3CCOCC3)n2)c1 [Compound 308]
		< 1000 nM	< 25000 nM	Nc1cc(-c2cnc(N)nc2)nc(N2CCOCC2)n1 [Compound 301]

IC50 [1]	EC50 ([2]; ovarian cancer cell line A2780)	IC50 ([1]; Biological Method 1)	EC50 [2, 3]	Compound
< 1000 nM	< 10000 nM			Nc1ncc(-c2cc(N3CCc4ccccc4C3)nc(N3CCOCC3)n2)cn1 [Compound 403]
		< 1000 nM	< 10000 nM	Nc1ncc(-c2cc(Nc3ccccc3C(F)(F)F)nc(N3CCOCC3)n2)cn1 [Compound 393]
< 1000 nM	< 10000 nM			Cc1cnc(N2CCOCC2)nc1-c1cnc(N)nc1 [Compound 482]
< 1000 nM	< 10000 nM			N#Cc1ccccc1Nc1cc(-c2cnc(N)nc2)nc(N2CCOCC2)n1 [Compound 449]
< 1000 nM	< 10000 nM			Cc1c(-c2cnc(N)nc2)nc(N2CCOCC2)nc1-c1cnc(N)nc1 [Compound 484]
< 10000 nM	< 25000 nM			CN1CCN(C(=O)c2cnc(N3CCOCC3)nc2-c2cnc(N)nc2)CC1 [Compound 428]
< 1000 nM	< 1000 nM			Nc1ncc(-c2cc(Nc3ccc4c(c3)OCC(=O)N4)nc(N3CCOCC3)n2)cn1 [Compound 412]
< 1000 nM	< 10000 nM			Nc1ccc(-c2cc(Nc3cc(F)ccc3F)nc(N3CCOCC3)n2)cn1 [Compound 436]
		< 1000 nM	< 10000 nM	Nc1ccc(-c2cc(Nc3ccc4cn[nH]c4c3)nc(N3CCOCC3)n2)cn1 [Compound 227]
< 1000 nM	< 10000 nM			COc1cncc(-c2nc(N3CCOCC3)nc(-c3cnc(N)nc3)c2C)c1 [Compound 475]
< 1000 nM	< 25000 nM			Cc1nc(N)ncc1-c1nc(N2CCOCC2)nc(Cl)c1C [Compound 468]
		< 1000 nM	< 10000 nM	CS(=O)(=O)Nc1ncccc1-c1cc(-c2cnc(N)nc2N)nc(N2CCOCC2)n1 [Compound 260]
< 1000 nM	< 10000 nM			Nc1ncc(-c2cc(Cl)nc(N3CCOCC3)n2)cn1 [Compound 523]
< 1000 nM	< 1000 nM			Nc1ncc(-c2cc(Nc3ccnc4cc(C(F)(F)F)ccc34)nc(N3CCOCC3)n2)cn1 [Compound 409]
		< 1000 nM	< 10000 nM	Nc1ncc(-c2cc(NC(=O)[C@@H]3CCCO3)nc(N3CCOCC3)n2)cn1 [Compound 290]
< 1000 nM	< 25000 nM			Cc1c(Cl)nc(N2CCOCC2)nc1-c1cnc(N)nc1 [Compound 483]
